Assay results from the NIST ThermoML archive (doi:10.1007/s10765-005-8101-x).
Numbers after ± are expanded uncertainties.

Assays:
[1] = xn = mol fraction of the nth substance listed; settings: 298.15 K, 101 kPa, Liquid
[2] = 298.15 K; 101.33 kPa; Liquid

**Q.** What does the source list for `CCCCCCO` [hexan-1-ol] + CC(C)O?
**A.** mass density ([1]; x2 = 0.039): 814.4 ± 1.2 kg/m3; speed of sound ([1]; x2 = 0.039): 1299.6 ± 5.9 m/s; mass density ([1]; x2 = 0.1037): 813 ± 1.1 kg/m3; speed of sound ([1]; x2 = 0.1037): 1292.9 ± 5.9 m/s; mass density ([1]; x2 = 0.2075): 810.57 ± 1.1 kg/m3; speed of sound ([1]; x2 = 0.2075): 1281.1 ± 5.8 m/s; mass density ([1]; x2 = 0.3051): 808.2 ± 1.1 kg/m3; speed of sound ([1]; x2 = 0.3051): 1269.2 ± 5.7 m/s; mass density ([1]; x2 = 0.4032): 805.42 ± 1.1 kg/m3; speed of sound ([1]; x2 = 0.4032): 1255.9 ± 5.7 m/s; mass density ([1]; x2 = 0.5067): 802.47 ± 1.1 kg/m3; speed of sound ([1]; x2 = 0.5067): 1241.4 ± 5.6 m/s; mass density ([1]; x2 = 0.6044): 799.08 ± 1 kg/m3; speed of sound ([1]; x2 = 0.6044): 1225 ± 5.5 m/s; mass density ([1]; x2 = 0.7047): 795.43 ± 1 kg/m3; speed of sound ([1]; x2 = 0.7047): 1207.3 ± 5.4 m/s; mass density ([1]; x2 = 0.8059): 791.12 ± 1 kg/m3; speed of sound ([1]; x2 = 0.8059): 1186.8 ± 5.4 m/s; mass density ([1]; x2 = 0.9081): 786.44 ± 1 kg/m3; speed of sound ([1]; x2 = 0.9081): 1164.3 ± 5.3 m/s

**Q.** Which mass density [2] does the source give for `CC(C)O` [propan-2-ol] here?
**A.** The mass density was 781.91 ± 0.62 kg/m3.

**Q.** What about the speed of sound [2] of the same compound?
**A.** The speed of sound was 1141.3 ± 2.7 m/s.

**Q.** With `CCCCCCCCO` [octan-1-ol] + CC(C)O as the compound, how does the mass density ([1]; x2 = 0.0862) read?
**A.** The mass density was 819.96 ± 1.4 kg/m3.

**Q.** What about the speed of sound ([1]; x2 = 0.0862) of the same compound?
**A.** Its speed of sound is 1338.7 ± 6.4 m/s.

**Q.** What about the mass density ([1]; x2 = 0.2078) of the same compound?
**A.** Its mass density is 817.18 ± 1.4 kg/m3.

**Q.** And the speed of sound ([1]; x2 = 0.2078)?
**A.** The speed of sound was 1324.2 ± 6.2 m/s.

**Q.** And the mass density ([1]; x2 = 0.2977)?
**A.** Its mass density is 814.58 ± 1.3 kg/m3.

**Q.** What about the speed of sound ([1]; x2 = 0.2977) of the same compound?
**A.** The speed of sound was 1311.6 ± 6.1 m/s.

**Q.** And the mass density ([1]; x2 = 0.4059)?
**A.** The mass density was 811.74 ± 1.2 kg/m3.

**Q.** What about the speed of sound ([1]; x2 = 0.4059) of the same compound?
**A.** Its speed of sound is 1296 ± 6 m/s.

**Q.** And the mass density ([1]; x2 = 0.5012)?
**A.** The mass density was 808.6 ± 1.2 kg/m3.

**Q.** What about the speed of sound ([1]; x2 = 0.5012) of the same compound?
**A.** Its speed of sound is 1279.4 ± 5.9 m/s.

**Q.** And the mass density ([1]; x2 = 0.5991)?
**A.** The mass density was 804.77 ± 1.1 kg/m3.

**Q.** And the speed of sound ([1]; x2 = 0.5991)?
**A.** Its speed of sound is 1259.8 ± 5.7 m/s.

**Q.** And the mass density ([1]; x2 = 0.6994)?
**A.** Its mass density is 800.52 ± 1.1 kg/m3.

**Q.** What about the speed of sound ([1]; x2 = 0.6994) of the same compound?
**A.** Its speed of sound is 1237.7 ± 5.6 m/s.

**Q.** And the mass density ([1]; x2 = 0.7985)?
**A.** Its mass density is 795.28 ± 1.1 kg/m3.

**Q.** And the speed of sound ([1]; x2 = 0.7985)?
**A.** The speed of sound was 1211.1 ± 5.5 m/s.

**Q.** And the mass density ([1]; x2 = 0.8993)?
**A.** The mass density was 789.09 ± 1 kg/m3.

**Q.** And the speed of sound ([1]; x2 = 0.8993)?
**A.** Its speed of sound is 1179.3 ± 5.3 m/s.

**Q.** And the mass density ([1]; x2 = 0.9453)?
**A.** The mass density was 785.8 ± 1 kg/m3.

**Q.** What about the speed of sound ([1]; x2 = 0.9453) of the same compound?
**A.** Its speed of sound is 1162.8 ± 5.3 m/s.

**Q.** What does the source list for `CCCCCCO` [hexan-1-ol]?
**A.** mass density [2]: 815.15 ± 1.2 kg/m3; speed of sound [2]: 1303.6 ± 5.9 m/s

**Q.** Which mass density ([1]; x1 = 0.1051) does the source give for `CC(C)O` [propan-2-ol] + CCCO here?
**A.** Its mass density is 798.37 ± 0.97 kg/m3.

**Q.** What about the speed of sound ([1]; x1 = 0.1051) of the same compound?
**A.** Its speed of sound is 1201 ± 5.4 m/s.

**Q.** What about the mass density ([1]; x1 = 0.195) of the same compound?
**A.** Its mass density is 796.76 ± 0.97 kg/m3.

**Q.** And the speed of sound ([1]; x1 = 0.195)?
**A.** Its speed of sound is 1195.4 ± 5.3 m/s.

**Q.** What about the mass density ([1]; x1 = 0.3049) of the same compound?
**A.** Its mass density is 794.67 ± 0.98 kg/m3.

**Q.** And the speed of sound ([1]; x1 = 0.3049)?
**A.** Its speed of sound is 1187.9 ± 5.3 m/s.

**Q.** And the mass density ([1]; x1 = 0.4062)?
**A.** Its mass density is 792.8 ± 0.98 kg/m3.

**Q.** And the speed of sound ([1]; x1 = 0.4062)?
**A.** The speed of sound was 1181.3 ± 5.3 m/s.

**Q.** And the mass density ([1]; x1 = 0.4941)?
**A.** Its mass density is 791.17 ± 0.99 kg/m3.

**Q.** And the speed of sound ([1]; x1 = 0.4941)?
**A.** The speed of sound was 1175.4 ± 5.3 m/s.

**Q.** And the mass density ([1]; x1 = 0.6029)?
**A.** The mass density was 789.12 ± 0.99 kg/m3.

**Q.** What about the speed of sound ([1]; x1 = 0.6029) of the same compound?
**A.** Its speed of sound is 1168 ± 5.3 m/s.

**Q.** And the mass density ([1]; x1 = 0.7067)?
**A.** The mass density was 787.16 ± 1 kg/m3.

**Q.** And the speed of sound ([1]; x1 = 0.7067)?
**A.** The speed of sound was 1161 ± 5.2 m/s.

**Q.** And the mass density ([1]; x1 = 0.8063)?
**A.** Its mass density is 785.31 ± 1 kg/m3.

**Q.** What about the speed of sound ([1]; x1 = 0.8063) of the same compound?
**A.** Its speed of sound is 1154.2 ± 5.2 m/s.

**Q.** What about the mass density ([1]; x1 = 0.91) of the same compound?
**A.** Its mass density is 783.37 ± 1 kg/m3.

**Q.** And the speed of sound ([1]; x1 = 0.91)?
**A.** Its speed of sound is 1147.5 ± 5.2 m/s.

**Q.** What about the mass density ([1]; x1 = 0.9515) of the same compound?
**A.** Its mass density is 782.54 ± 1 kg/m3.

**Q.** What about the speed of sound ([1]; x1 = 0.9515) of the same compound?
**A.** The speed of sound was 1144.5 ± 5.2 m/s.

**Q.** With `CCCCO` [butan-1-ol] as the compound, how does the mass density [2] read?
**A.** The mass density was 806.14 ± 0.59 kg/m3.

**Q.** What about the speed of sound [2] of the same compound?
**A.** The speed of sound was 1240.8 ± 2.9 m/s.

**Q.** Which mass density [2] does the source give for `CCCO` [propan-1-ol] here?
**A.** The mass density was 800.62 ± 0.6 kg/m3.

**Q.** What about the speed of sound [2] of the same compound?
**A.** Its speed of sound is 1208.1 ± 2.8 m/s.

**Q.** Which mass density [2] does the source give for `CCCCCCCCO` [octan-1-ol] here?
**A.** Its mass density is 821.72 ± 2.1 kg/m3.

**Q.** What about the speed of sound [2] of the same compound?
**A.** Its speed of sound is 1347.9 ± 6.5 m/s.

**Q.** What does the source list for `CCCCO` [butan-1-ol] + CC(C)O?
**A.** mass density ([1]; x2 = 0.0596): 804.62 ± 0.95 kg/m3; speed of sound ([1]; x2 = 0.0596): 1235.6 ± 5.5 m/s; mass density ([1]; x2 = 0.1039): 803.68 ± 0.95 kg/m3; speed of sound ([1]; x2 = 0.1039): 1231.8 ± 5.5 m/s; mass density ([1]; x2 = 0.2093): 801.62 ± 0.96 kg/m3; speed of sound ([1]; x2 = 0.2093): 1223.2 ± 5.4 m/s; mass density ([1]; x2 = 0.3024): 799.57 ± 0.96 kg/m3; speed of sound ([1]; x2 = 0.3024): 1214.8 ± 5.4 m/s; mass density ([1]; x2 = 0.3977): 797.49 ± 0.97 kg/m3; speed of sound ([1]; x2 = 0.3977): 1206.1 ± 5.4 m/s; mass density ([1]; x2 = 0.5033): 794.92 ± 0.98 kg/m3; speed of sound ([1]; x2 = 0.5033): 1195.9 ± 5.4 m/s; mass density ([1]; x2 = 0.599): 792.68 ± 0.98 kg/m3; speed of sound ([1]; x2 = 0.599): 1186.5 ± 5.3 m/s; mass density ([1]; x2 = 0.6946): 790.21 ± 0.99 kg/m3; speed of sound ([1]; x2 = 0.6946): 1176.4 ± 5.3 m/s; mass density ([1]; x2 = 0.8062): 787.19 ± 1 kg/m3; speed of sound ([1]; x2 = 0.8062): 1164.1 ± 5.3 m/s; mass density ([1]; x2 = 0.8938): 784.58 ± 1 kg/m3; speed of sound ([1]; x2 = 0.8938): 1153.6 ± 5.2 m/s
